The results in this text go back to ChEMBL document CHEMBL5357082, “Identification and Optimization of Small Molecule Pyrazolopyrimidine TLR7 Agonists for Applications in Immuno-oncology” (ACS Med Chem Lett, 2024).

The target in series [1] is T1, Cytochrome P450 3A4 (Homo sapiens, UniProt P08684). The series can be described thus: Inhibition of CYP3A4 (unknown origin) using BFC as substrate preincubated with compound followed by substrate addition at 30 mins. Type of series: ADME.
The target of the next series is Cytochrome P450 2C9 (Homo sapiens, UniProt P11712). The series can be described thus: Inhibition of CYP2C9 (unknown origin). It counts as ADME.
Sequence of Cytochrome P450 2C9 (P11712 whole entry): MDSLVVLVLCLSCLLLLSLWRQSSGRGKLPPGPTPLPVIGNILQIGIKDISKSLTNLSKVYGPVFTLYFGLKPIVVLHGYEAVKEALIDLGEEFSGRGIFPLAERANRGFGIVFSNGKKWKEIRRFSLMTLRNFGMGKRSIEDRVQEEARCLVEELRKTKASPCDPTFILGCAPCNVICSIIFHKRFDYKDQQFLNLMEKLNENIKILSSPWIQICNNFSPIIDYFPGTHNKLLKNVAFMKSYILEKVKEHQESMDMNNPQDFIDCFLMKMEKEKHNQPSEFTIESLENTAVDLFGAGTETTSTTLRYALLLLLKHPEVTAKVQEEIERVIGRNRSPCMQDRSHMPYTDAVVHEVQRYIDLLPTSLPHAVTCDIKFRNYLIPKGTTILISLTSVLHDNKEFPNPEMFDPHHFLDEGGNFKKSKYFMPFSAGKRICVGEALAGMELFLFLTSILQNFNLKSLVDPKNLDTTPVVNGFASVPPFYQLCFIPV
In another series the target is T2, Cytochrome P450 1A2 (Homo sapiens, UniProt P05177).
T2 sequence (P05177 whole entry): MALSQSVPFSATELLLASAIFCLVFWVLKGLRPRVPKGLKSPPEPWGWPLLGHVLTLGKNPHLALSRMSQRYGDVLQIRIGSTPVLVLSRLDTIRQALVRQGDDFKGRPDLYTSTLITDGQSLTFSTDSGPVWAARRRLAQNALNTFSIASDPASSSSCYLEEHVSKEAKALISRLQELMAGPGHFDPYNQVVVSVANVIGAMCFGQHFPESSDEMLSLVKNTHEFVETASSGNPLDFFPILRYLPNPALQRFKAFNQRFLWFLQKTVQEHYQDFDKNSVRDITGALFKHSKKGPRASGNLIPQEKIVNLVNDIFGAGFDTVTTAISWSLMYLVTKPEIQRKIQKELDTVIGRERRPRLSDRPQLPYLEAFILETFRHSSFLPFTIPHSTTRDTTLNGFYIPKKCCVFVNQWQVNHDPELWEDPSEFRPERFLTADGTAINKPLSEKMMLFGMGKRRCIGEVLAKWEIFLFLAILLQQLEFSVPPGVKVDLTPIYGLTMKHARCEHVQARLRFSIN
The series is described as follows: Inhibition of CYP1A2 (unknown origin). It counts as ADME.

Series [2] in a line: Cytotoxicity against PHA-activated T-cells (unknown origin) assessed as inhibition of IL-2 induced cell proliferation measured after 72 hrs by MTS assay. It counts as toxicity, cell-based. (In general: Tetrazolium dyes change colour on reduction, which living cells bring about.)
For the next series, the target named is Cytochrome P450 2D6 (Homo sapiens, UniProt P10635). The series is described as follows: Inhibition of CYP2D6 (unknown origin). Type of series: ADME.
Sequence of Cytochrome P450 2D6 (P10635 whole entry): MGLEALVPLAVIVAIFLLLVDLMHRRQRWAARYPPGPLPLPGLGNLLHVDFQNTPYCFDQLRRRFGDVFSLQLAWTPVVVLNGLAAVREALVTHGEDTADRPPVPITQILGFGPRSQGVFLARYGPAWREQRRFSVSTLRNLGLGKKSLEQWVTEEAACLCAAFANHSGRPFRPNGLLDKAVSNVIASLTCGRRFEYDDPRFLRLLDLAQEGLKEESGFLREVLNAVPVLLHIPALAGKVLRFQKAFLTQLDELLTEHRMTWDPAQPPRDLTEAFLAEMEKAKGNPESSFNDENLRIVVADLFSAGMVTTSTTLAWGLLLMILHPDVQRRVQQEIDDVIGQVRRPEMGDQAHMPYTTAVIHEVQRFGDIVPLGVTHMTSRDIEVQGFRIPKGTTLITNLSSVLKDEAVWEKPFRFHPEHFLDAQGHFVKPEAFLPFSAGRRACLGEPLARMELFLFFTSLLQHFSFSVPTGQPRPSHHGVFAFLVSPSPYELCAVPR
For series [3], the target named is T1, Cytochrome P450 3A4. The series is described as follows: Inhibition of CYP3A4 (unknown origin) using BFC as substrate. Type of series: ADME.
For series [4], the target named is Voltage-gated inwardly rectifying potassium channel KCNH2 (Homo sapiens, UniProt Q12809). The series is described as follows: Inhibition of hERG. It counts as toxicity. In general terms: The hERG channel carries a current that helps repolarise heart muscle cells.
Sequence of Voltage-gated inwardly rectifying potassium channel KCNH2 (Q12809 whole entry): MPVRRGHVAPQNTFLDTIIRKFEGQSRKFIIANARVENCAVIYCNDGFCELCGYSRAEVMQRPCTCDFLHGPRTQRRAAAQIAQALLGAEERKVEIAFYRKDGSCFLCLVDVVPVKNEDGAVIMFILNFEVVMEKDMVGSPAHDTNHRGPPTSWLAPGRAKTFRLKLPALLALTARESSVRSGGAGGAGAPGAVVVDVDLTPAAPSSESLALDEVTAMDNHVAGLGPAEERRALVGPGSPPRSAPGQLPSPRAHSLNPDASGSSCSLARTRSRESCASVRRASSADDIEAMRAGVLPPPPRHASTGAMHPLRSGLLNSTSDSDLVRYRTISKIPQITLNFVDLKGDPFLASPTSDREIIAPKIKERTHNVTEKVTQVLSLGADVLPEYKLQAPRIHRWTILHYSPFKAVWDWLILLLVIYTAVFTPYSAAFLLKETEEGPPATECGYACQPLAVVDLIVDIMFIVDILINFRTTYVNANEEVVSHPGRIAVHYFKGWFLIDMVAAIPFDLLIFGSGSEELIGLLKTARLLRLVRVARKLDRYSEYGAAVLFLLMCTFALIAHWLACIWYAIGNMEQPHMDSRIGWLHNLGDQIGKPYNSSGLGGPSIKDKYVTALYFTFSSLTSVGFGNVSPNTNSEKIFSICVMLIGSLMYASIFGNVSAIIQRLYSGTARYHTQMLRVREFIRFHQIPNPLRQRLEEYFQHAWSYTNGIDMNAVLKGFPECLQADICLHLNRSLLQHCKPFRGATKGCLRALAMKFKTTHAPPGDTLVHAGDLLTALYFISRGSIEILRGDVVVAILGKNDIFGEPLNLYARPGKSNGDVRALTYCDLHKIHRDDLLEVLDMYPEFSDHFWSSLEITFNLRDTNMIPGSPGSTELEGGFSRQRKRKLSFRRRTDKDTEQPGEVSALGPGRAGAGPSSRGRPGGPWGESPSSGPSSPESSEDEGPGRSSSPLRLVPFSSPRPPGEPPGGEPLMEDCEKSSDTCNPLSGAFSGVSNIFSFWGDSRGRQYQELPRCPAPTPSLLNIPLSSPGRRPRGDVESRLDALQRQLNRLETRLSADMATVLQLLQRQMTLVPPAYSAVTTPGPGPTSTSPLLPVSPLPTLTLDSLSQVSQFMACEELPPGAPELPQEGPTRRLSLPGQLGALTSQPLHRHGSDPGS
For another series, the target named is T3, Cytochrome P450 2C8 (Homo sapiens, UniProt P10632).
T3 sequence (P10632 whole entry): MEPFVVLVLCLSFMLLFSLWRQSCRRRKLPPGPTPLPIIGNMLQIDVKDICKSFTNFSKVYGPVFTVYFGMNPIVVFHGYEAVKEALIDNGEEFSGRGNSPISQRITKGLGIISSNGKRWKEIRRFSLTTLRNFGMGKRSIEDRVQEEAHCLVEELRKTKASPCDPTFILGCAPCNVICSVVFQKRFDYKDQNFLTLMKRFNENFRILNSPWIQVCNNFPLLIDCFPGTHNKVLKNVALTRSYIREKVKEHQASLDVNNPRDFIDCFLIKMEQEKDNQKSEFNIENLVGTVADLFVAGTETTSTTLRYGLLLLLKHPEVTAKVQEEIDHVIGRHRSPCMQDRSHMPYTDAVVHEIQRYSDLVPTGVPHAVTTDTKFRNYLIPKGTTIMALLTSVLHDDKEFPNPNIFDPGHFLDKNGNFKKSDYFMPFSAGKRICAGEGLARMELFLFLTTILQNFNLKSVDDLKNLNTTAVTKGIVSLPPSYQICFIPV
The series can be described thus: Inhibition of CYP2C8 (unknown origin). It counts as ADME.

Another series has as its target Cytochrome P450 2C19 (Homo sapiens, UniProt P33261). The series can be described thus: Inhibition of CYP2C19 (unknown origin). It counts as ADME.
Series [5] concerns the target T1, Cytochrome P450 3A4. The series can be described thus: Inhibition of CYP3A4 (unknown origin) using BFC as substrate preincubated with compound followed by substrate addition at 5 mins. It counts as ADME.
Series [6] in a line: Metabolic stability in human liver microsomes assessed as compound remaining at 0.5 uM incubated for 10 mins in presence of NADPH by UV absorbance based assay. It counts as ADME, Microsome. Particulars: read-out: Stability. (Liver microsomes are a subcellular fraction often used to study metabolism.)
Series [7] is described as follows: Metabolic stability in mouse liver microsomes assessed as compound remaining at 0.5 uM incubated for 10 mins in presence of NADPH by UV absorbance based assay. Type of series: ADME, Microsome. Particulars: read-out: Stability; call rule not given here.
The next series has as its target T4, Toll-like receptor 7 (Mus musculus, UniProt P58681).
T4 sequence (P58681 whole entry): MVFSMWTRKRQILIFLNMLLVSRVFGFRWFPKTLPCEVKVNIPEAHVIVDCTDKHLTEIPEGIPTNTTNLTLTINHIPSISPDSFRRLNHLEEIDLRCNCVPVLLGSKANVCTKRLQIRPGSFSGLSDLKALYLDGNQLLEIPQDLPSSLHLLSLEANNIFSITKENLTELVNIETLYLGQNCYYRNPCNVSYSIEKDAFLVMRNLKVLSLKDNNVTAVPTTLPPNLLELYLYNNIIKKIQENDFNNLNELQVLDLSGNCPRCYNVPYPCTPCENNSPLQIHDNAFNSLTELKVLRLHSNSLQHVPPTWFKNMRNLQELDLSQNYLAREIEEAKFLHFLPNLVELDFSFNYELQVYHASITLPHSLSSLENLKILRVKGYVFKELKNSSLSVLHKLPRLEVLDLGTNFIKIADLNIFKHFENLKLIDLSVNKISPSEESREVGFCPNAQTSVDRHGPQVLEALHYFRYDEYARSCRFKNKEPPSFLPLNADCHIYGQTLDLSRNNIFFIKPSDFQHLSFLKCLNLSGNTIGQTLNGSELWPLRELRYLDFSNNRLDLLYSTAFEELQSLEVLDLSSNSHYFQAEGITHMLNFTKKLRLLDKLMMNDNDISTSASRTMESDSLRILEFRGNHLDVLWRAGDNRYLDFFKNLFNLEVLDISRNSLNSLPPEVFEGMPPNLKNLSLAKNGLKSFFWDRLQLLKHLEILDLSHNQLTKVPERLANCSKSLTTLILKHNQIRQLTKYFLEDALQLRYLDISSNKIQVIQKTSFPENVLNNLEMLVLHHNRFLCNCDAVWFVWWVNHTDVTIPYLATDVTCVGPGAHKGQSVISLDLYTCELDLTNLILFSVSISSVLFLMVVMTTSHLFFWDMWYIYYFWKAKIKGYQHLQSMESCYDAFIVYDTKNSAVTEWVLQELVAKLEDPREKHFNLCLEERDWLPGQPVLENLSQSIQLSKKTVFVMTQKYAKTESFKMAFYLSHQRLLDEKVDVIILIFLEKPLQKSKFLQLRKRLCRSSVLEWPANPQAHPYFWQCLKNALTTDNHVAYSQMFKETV
The series can be described thus: Agonist activity at mouse TLR7.

Sequence of Cytochrome P450 2C19 (P33261 whole entry): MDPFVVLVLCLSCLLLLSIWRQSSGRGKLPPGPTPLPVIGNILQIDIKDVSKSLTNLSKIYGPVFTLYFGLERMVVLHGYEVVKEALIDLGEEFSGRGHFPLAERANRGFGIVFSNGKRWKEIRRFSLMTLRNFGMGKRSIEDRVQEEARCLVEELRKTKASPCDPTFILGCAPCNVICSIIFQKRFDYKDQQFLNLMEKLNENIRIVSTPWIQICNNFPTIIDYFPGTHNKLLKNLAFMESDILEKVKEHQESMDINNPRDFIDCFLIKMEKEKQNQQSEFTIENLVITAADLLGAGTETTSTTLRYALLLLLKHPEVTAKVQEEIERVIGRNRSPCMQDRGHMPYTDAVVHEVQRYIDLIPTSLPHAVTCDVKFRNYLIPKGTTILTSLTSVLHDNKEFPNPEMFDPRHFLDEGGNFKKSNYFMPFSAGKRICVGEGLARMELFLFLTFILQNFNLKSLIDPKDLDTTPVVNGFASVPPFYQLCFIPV
T1 sequence (P08684 whole entry): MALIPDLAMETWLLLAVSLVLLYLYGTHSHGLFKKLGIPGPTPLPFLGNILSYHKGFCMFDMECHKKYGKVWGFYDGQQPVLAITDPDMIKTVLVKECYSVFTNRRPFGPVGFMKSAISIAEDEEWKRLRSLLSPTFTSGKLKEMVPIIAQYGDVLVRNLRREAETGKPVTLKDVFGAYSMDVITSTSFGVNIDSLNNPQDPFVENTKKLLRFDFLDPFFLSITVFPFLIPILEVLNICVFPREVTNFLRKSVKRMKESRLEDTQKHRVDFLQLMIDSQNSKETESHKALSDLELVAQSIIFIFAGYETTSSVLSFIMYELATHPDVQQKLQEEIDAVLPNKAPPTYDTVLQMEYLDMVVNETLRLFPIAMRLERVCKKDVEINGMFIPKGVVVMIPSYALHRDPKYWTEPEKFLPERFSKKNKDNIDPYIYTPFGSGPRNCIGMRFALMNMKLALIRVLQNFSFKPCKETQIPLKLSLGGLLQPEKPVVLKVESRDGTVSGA

Usually IC50 stands for the concentration at which inhibition is half-maximal. As a reminder, the EC50 is the midpoint of the concentration-response curve. A lower EC50 goes with a more potent agent. Consider `CCC[C@@H](CCO)Nc1nc(N)nc2cnn(Cc3ncc(C4=CC5(CCN(C6CCOCC6)CC5)C4)cc3OC)c12`, for which the IC50 at Cytochrome P450 3A4 [1] is more than 20 µM; against Cytochrome P450 2C9, more than 20 µM; against Cytochrome P450 1A2, more than 20 µM; against Cytochrome P450 2D6 it was more than 20 µM; on Cytochrome P450 3A4 [3] it was more than 20 µM; in [4], more than 100 µM. Further, the IC50 against Cytochrome P450 2C8, on Cytochrome P450 2C19 and on Cytochrome P450 3A4 [5] was more than 20 µM throughout. For the same compound, the IC50 at 72 h in series [2] was 7.2 µM. Also, the remaining at 10 min, 0.5 µM is 75% in [6] and 86% in [7]. At Toll-like receptor 7, this compound had an EC50 of 0.127 µM.

For the compound `CCC[C@@H](CCO)Nc1nc(N)nc2cnn(Cc3ncc(C4=CC5(CCNCC5)C4)cc3OC)c12`, the IC50 at Cytochrome P450 3A4 [1] is more than 20 µM; against Cytochrome P450 2C9, more than 20 µM; at Cytochrome P450 1A2, more than 20 µM; at Cytochrome P450 2D6, more than 20 µM; against Cytochrome P450 3A4 [3], more than 20 µM; in series [4] it was 10 µM. Besides, the IC50 at Cytochrome P450 2C8, against Cytochrome P450 2C19 and on Cytochrome P450 3A4 [5] was more than 20 µM each time. In series [2], the IC50 at 72 h is more than 25 µM. Further, the remaining at 10 min, 0.5 µM in [6] was determined as 80%; in [7], 93%. Also, the EC50 on Toll-like receptor 7 was found to be 1.91 µM.

As to `CCC[C@@H](CCO)Nc1nc(N)nc2cnn(Cc3ncc(C4=CC5(CCN(C(C)C)CC5)C4)cc3OC)c12`, the IC50 on Cytochrome P450 3A4 [1] was more than 20 µM; on Cytochrome P450 2C9, more than 20 µM; at Cytochrome P450 1A2 it was more than 20 µM; against Cytochrome P450 2D6, more than 20 µM; against Cytochrome P450 3A4 [3], more than 20 µM; in series [4] it was 62 µM. In addition, the IC50 on Cytochrome P450 2C8, against Cytochrome P450 2C19 and at Cytochrome P450 3A4 [5] was more than 20 µM each time. Also, the IC50 at 72 h in series [2] was 16 µM. The remaining at 10 min, 0.5 µM in series [6] stood at 72%; in [7] it was 83%. Moreover, the EC50 at Toll-like receptor 7 stood at 0.159 µM.

Turning to `CCCCNc1nc(N)nc2c(C)nn(Cc3ncc(C4CCNCC4)cc3OC)c12`, the IC50 is 1 µM on Cytochrome P450 3A4 [1]; more than 20 µM on Cytochrome P450 2C9; more than 20 µM against Cytochrome P450 1A2; more than 20 µM on Cytochrome P450 2D6; 1 µM at Cytochrome P450 3A4 [3]; more than 50 µM in series [4]. For the same compound, the half-maximal inhibitory concentration (IC50) is more than 20 µM against Cytochrome P450 2C8, more than 20 µM against Cytochrome P450 2C19 and 1.21 µM at Cytochrome P450 3A4 [5]. In series [2], the IC50 at 72 h was more than 25 µM. Further, the remaining at 10 min, 0.5 µM in series [6] turned out to be 95%; in series [7] it was 71%. Also, the EC50 at Toll-like receptor 7 was more than 5 µM.

As to `CCC[C@@H](CCO)Nc1nc(N)nc2cnn(Cc3ncc(C4CC5(C4)CN(C(C)C)C5)cc3OC)c12`, the “inhibition (INH)” value (against Cytochrome P450 2C9 (human); against Cytochrome P450 1A2 (human); against Cytochrome P450 2D6 (human); against Cytochrome P450 3A4 [3] (human); in series [4] (human); at Cytochrome P450 2C8 (human)) was “Not Active” each time. Also, the “inhibition (INH)” value on Cytochrome P450 2C19 (human) is “Not Active”. Moreover, the IC50 at 72 h in series [2] was more than 25 µM. At Toll-like receptor 7, this compound displayed an EC50 of 0.626 µM.

On to `CCCCNc1nc(N)nc2cnn(Cc3ccc(CNC4CCC4)cc3OC)c12`, for which the IC50 against Cytochrome P450 2C9 is more than 20 µM; against Cytochrome P450 1A2, more than 20 µM; against Cytochrome P450 2D6, 1.12 µM; against Cytochrome P450 3A4 [3], 8.14 µM; in series [4], 24 µM; against Cytochrome P450 2C8 it was more than 20 µM. Moreover, the figures for the half-inhibitory concentration (IC50) against Cytochrome P450 2C19 and on Cytochrome P450 3A4 [5] were more than 20 µM and 14.2 µM, respectively. Further, the IC50 at 72 h in series [2] was 15 µM. The figures for the remaining at 10 min, 0.5 µM in series [6] and in series [7] were 45% and 3%, respectively.

Turning to `CCCCNc1nc(N)nc2cnn(Cc3ccc(C4CCNCC4)cc3OC)c12`, the IC50 at Cytochrome P450 3A4 [1] is more than 20 µM; on Cytochrome P450 2C9, more than 20 µM; at Cytochrome P450 1A2, more than 20 µM; against Cytochrome P450 2D6, 14.2 µM; at Cytochrome P450 3A4 [3] it was more than 20 µM; in [4] it was 4 µM. Moreover, the results for the IC50 on Cytochrome P450 2C8, against Cytochrome P450 2C19 and at Cytochrome P450 3A4 [5] were 4.97 µM, 9.42 µM and more than 20 µM, respectively. The IC50 at 72 h in [2] was more than 25 µM. In addition, the remaining at 10 min, 0.5 µM in series [6] was found to be 89%; in series [7] it was 54%. Also, the EC50 on Toll-like receptor 7 is 0.074 µM.
